Columns and labels:
[1] = test system: human normal hair papilla cells HFDPC-C; assay: Cell growth test on hair papilla cells (neutral red method, living cell number vs purified water control); type: cell-based; settings: for Hair papilla cell growth promoting action (in words): conclusion from Tables 1, 2 and 4; for Growth rate control = 100: 72 hours culture
Method: First, human normal hair papilla cells HFDPC-C (manufactured by Takara Bio Inc.) were obtained, and the hair papilla cells were then seeded at 0.2×10^4/dish in each well of a 96-well plate for cell culture (manufactured by Corning Inc.). Further, 200 μL of a basal medium (trade name: “Follicle Dermal Papilla Cell Basal Medium”, manufactured by Takara Bio Inc.) containing a growth factor accompanying the obtained hair papilla cells was supplied to each well, and the hair papilla cells were precultured in each well at 37° C. for 24 hours.
Next, the hair papilla cells were confirmed to be subconfluent, and the basal medium in each well was then replaced by 200 μL of another basal medium (trade name: “Follicle Dermal Papilla Cell Basal Medium”, manufactured by Takara Bio Inc.) free of the growth factor described above. In this way, hair papilla cells to be used for determining whether or not addition of the above-described samples promote cell growth were prepared.
To the hair papilla cells prepared as described above, amino acids, combinations of amino acids, peptides and collagen peptide mixtures which are the samples described above were added at final concentrations shown in Tables 1 and 2, and the hair papilla cells were cultured in each well at 37° C. for 72 hours. Here, to one of the wells containing the hair papilla cells prepared as described above, 20 μL, of purified water was added, and as with other hair papilla cells, culturing was performed at 37° C. for 72 hours to prepare a control test sample (control). Thereafter, for each of the hair papilla cells in the wells containing purified water or the samples, the number of living cells (living cell number) was counted by a neutral red method. Here, the “neutral red method” is a method in which neutral red is added at a final concentration of 150 μg/mL into a well where cells are cultured, the cells are cultured for 20 minutes, and washed with PBS (phosphate buffer physiological saline), 200 μL of a 50 mass % ethanol solution containing 1 mass % acetic acid is added into the well as an extraction liquid, the mixture is stirred, and the absorbance of the well containing the neutral red is measured at a wavelength of 540 nm to measure the number of living cells in the well.
The number of living cells of hair papilla cells in the well containing the sample with respect to the number of living cells of hair pallia cells in the well containing purified water (control test sample) was determined as a cell growth rate (%) to evaluate the hair papilla cell growth promoting action in the sample. Further, the cell growth rate (%) was subjected to statistical processing to evaluate significance of the hair papilla cell growth promoting action in the sample. […] Thereafter, the Student's t-test (t-test) was conducted to evaluate significance. […] In Tables 1 and 2, samples with “++” were determined to have a significance in the hair papilla cell growth promoting action. In samples with “+”, the cell growth rate (%) exceeded 100.

hairless mice = assay: Test for confirming hair development effect and hair growth effect using hairless mouse (visual amount of head hair); type: in vivo
From the text: Thirty 8-week-old male and female hairless mice were provided by purchase from Hoshino Laboratory Animals, Inc. The hairless mice were divided into five groups each consisting of six mice with no regard to sex. Specifically, the plurality of groups consist of a normal group given a normal feed (trade name: “Labo MR Stock”, manufactured by Nosan Corporation), a control group given magnesium-deficient specialty feed (trade name: “HR-AD Feed”, manufactured by Nosan Corporation), a first group given a mixed feed obtained by adding Pro-Hyp at a content of 0.3 mass % to the magnesium-deficient specialty feed, a second group given a mixed feed obtained by adding the collagen peptide mixture A at a content of 5 mass % to the magnesium-deficient specialty feed, and a third group given a mixed feed obtained by adding a collagen peptide mixture C of the later-described composition at a content of 2.5 mass % to the magnesium-deficient specialty feed.
The heads of the hairless mice in the above-described groups were observed immediately after they were reared for 3 weeks to 11 weeks of age under the following conditions: the temperature was 23±2° C., the relative humidity was 55±10%, the lighting cycle was 12 hours, the light period started at 7:00 and ended at 19:00, and the mice were allowed to freely eat. […] At the time of obtaining the hairless mice, their heads had no hair.
Further, a 2-week-old hairless mouse before starting to lose its hair was obtained from Hoshino Laboratory Animals, Inc., and relative to the amount of head hair of the hairless mouse which is defined as 10, the amount of head hair of each of the 11-week-old hairless mice in each group was visually measured. […] Each of the values in the table represents an average of the amounts of head hair of the six hairless mice in each group.

[2] = final concentration 0.05 mM, Table 1
[3] = final concentration 0.5 mM, Table 1
[4] = final concentration 5 mM, Table 1
[5] = final concentration 0.05 mM, Table 4 (control test)
[6] = final concentration 0.5 mM, Table 4 (control test)
[7] = final concentration 5 mM, Table 4 (control test)

Row | Compound | Hair papilla cell growth promoting action (in words) [1] | Growth rate control = 100 ([1]; final concentration 0.05 mM) [%] | Assessment [1, 2] | Growth rate control = 100 ([1]; final concentration 0.5 mM) [%] | Assessment [1, 3] | Growth rate control = 100 ([1]; final concentration 5 mM) [%] | Assessment [1, 4] | Assessment [1, 5] | Assessment [1, 6] | Assessment [1, 7] | Score (amount of head hair, 2-week-old hairless mouse = 10) (hairless mice; First group: 0.3 mass % in magnesium-deficient specialty feed, 3 weeks, 11-week-old hairless mice, average of six) | Effectiveness as hair growing agent (in words) (hairless mice; conclusion from Table 3) | Hair development in the hair of head (FIG. 2 vs FIG. 1) (hairless mice; mixed feed with 0.3 mass % Pro-Hyp, 11-week-old hairless mice, compared with control group)
1 | proline-alanine-glycine [PAG] | had a hair papilla cell growth promoting action | 110 ± 4 | + (In samples with “+”, the cell growth rate (%) exceeded 100) | 113 ± 1 | ++ | 115 ± 4 | ++ |  |  |  |  |  | 
2 | O=C(O)[C@@H]1C[C@@H](O)CN1 [O, hydroxyproline] | had a hair papilla cell growth promoting action | 114 ± 1 | ++ | 114 ± 3 | ++ | 110 ± 5 | ++ |  |  |  |  |  | 
3 | glycine-proline-hydroxyproline [GPO] | had a hair papilla cell growth promoting action | 126 ± 3 | ++ | 125 ± 4 | ++ | 120 ± 4 | ++ |  |  |  |  |  | 
4 | C[C@H](N)C(=O)O [Ala, alanine, reference compound] | poor hair papilla cell growth promoting action | 94 ± 1 |  | 100 ± 8 |  | 95 ± 1 |  | − | − | − |  |  | 
5 | NC(=O)CC[C@H](N)C(=O)O [Gln, glutamine, reference compound] | poor hair papilla cell growth promoting action | 92 ± 2 |  | 94 ± 5 |  | 100 ± 4 |  | − | − | − |  |  | 
6 | O=C(O)[C@@H]1CCCN1 [Pro, proline, reference compound] | poor hair papilla cell growth promoting action | 91 ± 4 |  | 93 ± 5 |  | 96 ± 1 |  | − | − | − |  |  | 
7 | alanine-hydroxyproline-glycine [AOG] | had a hair papilla cell growth promoting action | 127 ± 5 | ++ | 126 ± 2 | ++ | 119 ± 2 | ++ |  |  |  |  |  | 
8 | NCC(=O)O.O=C(O)[C@@H]1CCCN1 [PG, proline-glycine] | had a hair papilla cell growth promoting action | 120 ± 5 | ++ | 120 ± 1 | ++ | 120 ± 5 | ++ |  |  |  |  |  | 
9 | proline-alanine [PA] | had a hair papilla cell growth promoting action | 105 ± 2 | + (In samples with “+”, the cell growth rate (%) exceeded 100) | 111 ± 1 | + (In samples with “+”, the cell growth rate (%) exceeded 100) | 107 ± 5 | + (In samples with “+”, the cell growth rate (%) exceeded 100) |  |  |  |  |  | 
10 | glutamic acid-hydroxyproline [EO] | had a hair papilla cell growth promoting action | 102 ± 6 | + (In samples with “+”, the cell growth rate (%) exceeded 100) | 109 ± 4 | + (In samples with “+”, the cell growth rate (%) exceeded 100) |  |  |  |  |  |  |  | 
11 | N=C(N)NCCC[C@H](N)C(=O)O [Arg, arginine, reference compound] | poor hair papilla cell growth promoting action | 93 ± 6 |  | 98 ± 3 |  | 101 ± 2 |  | − | − | − |  |  | 
12 | glutamic acid-hydroxyproline-glycine [EOG] | had a hair papilla cell growth promoting action | 126 ± 10 | ++ | 131 ± 1 | ++ | 121 ± 8 | ++ |  |  |  |  |  | 
13 | serine-hydroxyproline-glycine [SOG] | had a hair papilla cell growth promoting action | 113 ± 10 | + (In samples with “+”, the cell growth rate (%) exceeded 100) | 116 ± 3 | ++ | 109 ± 2 | + (In samples with “+”, the cell growth rate (%) exceeded 100) |  |  |  |  |  | 
14 | phenylalanine-hydroxyproline [FO] | had a hair papilla cell growth promoting action | 104 ± 4 | + (In samples with “+”, the cell growth rate (%) exceeded 100) | 106 ± 2 | + (In samples with “+”, the cell growth rate (%) exceeded 100) | 104 ± 1 | ++ |  |  |  |  |  | 
15 | proline-hydroxyproline [PO] | had a hair papilla cell growth promoting action | 126 ± 8 | ++ | 127 ± 3 | ++ | 129 ± 6 | ++ |  |  |  | 8 | effective as hair growing agents | hair development occurred in the hair of head
16 | proline-proline [PP] | had a hair papilla cell growth promoting action | 116 ± 3 | ++ | 113 ± 6 | ++ | 109 ± 2 | ++ |  |  |  |  |  | 
17 | NCC(=O)O.O=C(O)[C@@H]1CCCN1 [GP, glycine-proline] | had a hair papilla cell growth promoting action | 105 ± 4 | + (In samples with “+”, the cell growth rate (%) exceeded 100) | 109 ± 2 | ++ | 114 ± 2 | ++ |  |  |  |  |  | 
18 | leucine-hydroxyproline [LO] | had a hair papilla cell growth promoting action | 104 ± 6 | + (In samples with “+”, the cell growth rate (%) exceeded 100) | 105 ± 2 | + (In samples with “+”, the cell growth rate (%) exceeded 100) | 104 ± 5 | + (In samples with “+”, the cell growth rate (%) exceeded 100) |  |  |  |  |  | 
